{"source": "ChEMBL document CHEMBL5584333", "about": "“Evo312: An Evodiamine Analog and Novel PKCβI Inhibitor with Potent Antitumor Activity in Gemcitabine-Resistant Pancreatic Cancer” (J Med Chem, 2024)", "key": {"[1]": {"system": "Gemcitabine-resistant PANC-1", "assay": "Induction of cell cycle arrest in human Gemcitabine-resistant PANC-1 cells assessed as downregulation of Cdc2 protein expression level at 40 to 160 nM incubated for 24 hrs by Western blot analysis", "type": "functional, cell-based", "conditions": "dose 40-160 nM"}, "[2]": {"system": "Gemcitabine-resistant PANC-1", "assay": "Induction of apoptosis in human Gemcitabine-resistant PANC-1 cells assessed as total cell death at 160 nM incubated for 48 hrs by Annexin V-FITC/PI staining based flow cytometric analysis relative to control", "type": "functional"}, "[3]": {"system": "Gemcitabine-resistant PANC-1", "assay": "Effect on Akt expression in human Gemcitabine-resistant PANC-1 cells at 40 to 160 nM by Western blot analysis", "type": "functional, cell-based", "conditions": "dose 40-160 nM"}, "[4]": {"target": "T1, Signal transducer and activator of transcription 5A (Homo sapiens) (UniProt P42229)", "T1 sequence (whole entry)": "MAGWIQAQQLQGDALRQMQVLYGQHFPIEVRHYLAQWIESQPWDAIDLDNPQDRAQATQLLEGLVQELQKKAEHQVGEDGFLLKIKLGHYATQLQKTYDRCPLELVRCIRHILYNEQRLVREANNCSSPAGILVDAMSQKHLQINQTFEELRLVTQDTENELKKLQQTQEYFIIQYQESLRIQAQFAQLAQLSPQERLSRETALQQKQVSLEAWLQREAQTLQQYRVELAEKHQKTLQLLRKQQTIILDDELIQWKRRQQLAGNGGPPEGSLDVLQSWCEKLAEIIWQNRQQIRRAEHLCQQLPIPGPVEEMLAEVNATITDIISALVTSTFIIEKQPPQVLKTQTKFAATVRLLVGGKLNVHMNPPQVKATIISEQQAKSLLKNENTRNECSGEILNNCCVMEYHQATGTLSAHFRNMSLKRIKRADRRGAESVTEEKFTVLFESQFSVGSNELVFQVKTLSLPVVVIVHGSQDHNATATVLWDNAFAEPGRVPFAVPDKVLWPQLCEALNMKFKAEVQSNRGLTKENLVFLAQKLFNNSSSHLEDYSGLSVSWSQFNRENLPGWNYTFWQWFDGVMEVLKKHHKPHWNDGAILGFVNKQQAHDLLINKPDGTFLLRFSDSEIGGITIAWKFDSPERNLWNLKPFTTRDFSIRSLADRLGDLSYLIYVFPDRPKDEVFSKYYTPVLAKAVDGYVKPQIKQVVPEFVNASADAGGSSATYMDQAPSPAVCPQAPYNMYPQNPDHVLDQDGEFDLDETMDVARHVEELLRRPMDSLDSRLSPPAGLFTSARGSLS", "assay": "Inhibition of STAT5 phosphorylation in human Gemcitabine-resistant PANC-1 cells at 160 nM incubated for 24 hrs by phospho-kinase array analysis", "type": "cell-based"}, "[5]": {"system": "Gemcitabine-resistant PANC-1", "assay": "Cell cycle distribution in human Gemcitabine-resistant PANC-1 cells assessed as sub-G1 phase cells at 80 nM incubated for 24 hrs by RNase/PI staining based flow cytometric analysis (reference value: 0.30 %)", "type": "functional"}, "[6]": {"system": "Gemcitabine-resistant PANC-1", "assay": "Cytotoxicity against human Gemcitabine-resistant PANC-1 cells assessed as inhibition of cell growth incubated for 72 hrs by SRB assay", "type": "functional, cell-based", "conditions": "Gemcitabine-resistant PANC-1, 72 h"}, "[7]": {"system": "Gemcitabine-resistant PANC-1", "assay": "Induction of apoptosis in human Gemcitabine-resistant PANC-1 cells assessed as upregulation of cleaved caspase-9 level at 160 nM incubated for 48 hrs by Western blot analysis", "type": "functional, cell-based"}, "[8]": {"system": "Gemcitabine-resistant PANC-1", "assay": "Cell cycle distribution in human Gemcitabine-resistant PANC-1 cells assessed as G0-G1 phase cells at 160 nM incubated for 24 hrs by RNase/PI staining based flow cytometric analysis (reference value: 45.21 %)", "type": "functional"}, "[9]": {"system": "Gemcitabine-resistant PANC-1", "assay": "Downregulation of p-GSK3beta expression in human Gemcitabine-resistant PANC-1 cells at 40 to 160 nM incubated for 24 hrs by Western blotting", "type": "functional, cell-based", "conditions": "dose 40-160 nM"}, "[10]": {"system": "Gemcitabine-resistant PANC-1", "assay": "Cell cycle distribution in human Gemcitabine-resistant PANC-1 cells assessed as S phase cells at 40 nM incubated for 24 hrs by RNase/PI staining based flow cytometric analysis (reference value: 17.32 %)", "type": "functional"}, "[11]": {"assay": "Toxicity in male BALB/c nude mouse assessed as animal death at 40 mg/kg, ip", "type": "organism-based", "conditions": "in vivo"}, "[12]": {"target": "Protein kinase C beta type (Homo sapiens, UniProt P05771)", "sequence (P05771 whole entry)": "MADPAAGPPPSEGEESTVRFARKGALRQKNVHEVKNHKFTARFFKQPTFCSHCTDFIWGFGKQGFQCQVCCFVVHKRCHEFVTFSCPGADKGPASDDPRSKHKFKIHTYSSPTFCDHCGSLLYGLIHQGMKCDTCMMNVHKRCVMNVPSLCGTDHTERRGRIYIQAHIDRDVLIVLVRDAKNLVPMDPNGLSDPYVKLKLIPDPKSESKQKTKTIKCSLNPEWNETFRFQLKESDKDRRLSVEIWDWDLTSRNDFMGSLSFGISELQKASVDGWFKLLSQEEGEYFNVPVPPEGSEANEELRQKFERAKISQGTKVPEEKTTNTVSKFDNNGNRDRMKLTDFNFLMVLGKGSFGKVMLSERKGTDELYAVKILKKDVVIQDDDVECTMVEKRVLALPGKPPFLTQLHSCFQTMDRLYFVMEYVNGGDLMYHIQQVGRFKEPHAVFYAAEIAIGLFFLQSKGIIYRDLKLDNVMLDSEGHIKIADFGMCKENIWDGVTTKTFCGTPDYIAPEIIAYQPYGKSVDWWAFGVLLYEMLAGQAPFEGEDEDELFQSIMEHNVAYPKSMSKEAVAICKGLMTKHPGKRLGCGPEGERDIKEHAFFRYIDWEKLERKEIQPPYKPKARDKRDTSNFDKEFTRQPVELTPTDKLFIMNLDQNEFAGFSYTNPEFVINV", "assay": "Inhibition of recombinant full length N-terminal GST-tagged human PKCbeta1 expressed in baculovirus infected Sf9 insect cells using ERMRPRKRQGSVRRRV as substrate incubated for 60 mins in presence of ATP by ADP-glo reagent based luminometric analysis"}, "[13]": {"system": "Gemcitabine-resistant PANC-1", "assay": "Downregulation of p-p70S6K expression in human Gemcitabine-resistant PANC-1 cells at 40 to 160 nM incubated for 24 hrs by Western blotting", "type": "functional, cell-based", "conditions": "dose 40-160 nM"}, "[14]": {"system": "Gemcitabine-resistant PANC-1", "assay": "Cell cycle distribution in human Gemcitabine-resistant PANC-1 cells assessed as G0-G1 phase cells at 40 nM incubated for 24 hrs by RNase/PI staining based flow cytometric analysis (reference value: 45.21 %)", "type": "functional"}, "[15]": {"system": "Gemcitabine-resistant PANC-1", "assay": "Effect on p70S6K expression in human Gemcitabine-resistant PANC-1 cells at 40 to 160 nM by Western blot analysis", "type": "functional, cell-based", "conditions": "dose 40-160 nM"}, "[16]": {"system": "Gemcitabine-resistant PANC-1", "assay": "Induction of apoptosis in human Gemcitabine-resistant PANC-1 cells assessed as total cell death at 80 nM incubated for 48 hrs by Annexin V-FITC/PI staining based flow cytometric analysis relative to control", "type": "functional"}, "[17]": {"system": "Gemcitabine-resistant PANC-1", "assay": "Downregulation of PKCbeta1expression in human Gemcitabine-resistant PANC-1 cells at 100 nM incubated for 24 hrs by Western blot analysis", "type": "functional, cell-based"}, "[18]": {"system": "Gemcitabine-resistant PANC-1", "assay": "Downregulation of p-STAT5 expression in human Gemcitabine-resistant PANC-1 cells at 40 to 160 nM incubated for 24 hrs by Western blotting", "type": "functional, cell-based", "conditions": "dose 40-160 nM"}, "[19]": {"system": "Gemcitabine-resistant PANC-1", "assay": "Cell cycle distribution in human Gemcitabine-resistant PANC-1 cells assessed as S phase cells at 80 nM incubated for 24 hrs by RNase/PI staining based flow cytometric analysis (reference value: 17.32 %)", "type": "functional"}, "[20]": {"system": "Gemcitabine-resistant PANC-1", "assay": "Downregulation of PKCbeta1 expression in human Gemcitabine-resistant PANC-1 cells at 40 to 160 nM incubated for 24 hrs by Western blotting", "type": "functional, cell-based", "conditions": "dose 40-160 nM"}, "[21]": {"system": "Gemcitabine-resistant PANC-1", "assay": "Induction of cell cycle arrest in human Gemcitabine-resistant PANC-1 cells assessed as downregulation of CDK2 protein expression level at 40 to 160 nM incubated for 24 hrs by Western blot analysis", "type": "functional, cell-based", "conditions": "dose 40-160 nM"}, "[22]": {"assay": "Cytotoxicity against human MRC5 cells assessed as inhibition of cell growth incubated for 72 hrs by SRB assay", "type": "toxicity, cell-based"}, "[23]": {"system": "Gemcitabine-resistant PANC-1", "assay": "Downregulation of PKCalpha expression in human Gemcitabine-resistant PANC-1 cells at 40 to 160 nM incubated for 24 hrs by Western blotting", "type": "functional, cell-based", "conditions": "dose 40-160 nM"}, "[24]": {"system": "Gemcitabine-resistant PANC-1", "assay": "Downregulation of PKCepsilon expression in human Gemcitabine-resistant PANC-1 cells at 40 to 160 nM incubated for 24 hrs by Western blotting", "type": "functional, cell-based", "conditions": "dose 40-160 nM"}, "[25]": {"system": "PANC-1", "assay": "Antiproliferative activity against human PANC-1 cells transfected with PKCbeta1 siRNA assessed as reduction in cell viability at 0.016 to 10 uM incubated for 72 hrs by MTT assay", "type": "functional, cell-based", "conditions": "dose 0.016-10 µM"}, "[26]": {"system": "Gemcitabine-resistant PANC-1", "assay": "Cell cycle distribution in human Gemcitabine-resistant PANC-1 cells assessed as G2/M phase cells at 40 nM incubated for 24 hrs by RNase/PI staining based flow cytometric analysis (reference value: 37.53 %)", "type": "functional"}, "[27]": {"assay": "Cytotoxicity against HPDE6c7 cells assessed as inhibition of cell growth incubated for 72 hrs by SRB assay", "type": "toxicity, cell-based", "conditions": "human"}}, "note": "The source made the active and inactive calls. The calls are words filed in the database; no cut-off is given here.", "data": [{"smiles": "CC(=O)Oc1ccc2[nH]c3c(c2c1)CCN1C(=O)c2ccccc2N(C)[C@H]31", "values": [{"measurement": "Activity", "setting": "[1]", "value": "Active"}, {"measurement": "Activity", "setting": "[2]", "value": 24.95, "unit": "%"}, {"measurement": "Activity", "setting": "[3]", "value": "inactive"}, {"measurement": "inhibition", "setting": "[4]", "value": "Active"}, {"measurement": "Activity", "setting": "[5]", "value": 1.31, "unit": "%"}, {"measurement": "IC50", "setting": "[6]", "value": 70, "unit": "nM"}, {"measurement": "Activity", "setting": "[7]", "value": "Active"}, {"measurement": "Activity", "setting": "[8]", "value": 26.28, "unit": "%"}, {"measurement": "Activity", "setting": "[9]", "value": "Active"}, {"measurement": "Activity", "setting": "[10]", "value": 17.71, "unit": "%"}, {"measurement": "Activity", "setting": "[11]", "value": "Non-Toxic"}, {"measurement": "IC50", "setting": "[12]", "value": 117, "unit": "nM"}, {"measurement": "Activity", "setting": "[13]", "value": "Active"}, {"measurement": "Activity", "setting": "[14]", "value": 42.91, "unit": "%"}, {"measurement": "Activity", "setting": "[15]", "value": "inactive"}, {"measurement": "Activity", "setting": "[16]", "value": 20.63, "unit": "%"}, {"measurement": "Activity", "setting": "[17]", "value": "Active"}, {"measurement": "Activity", "setting": "[18]", "value": "Active"}, {"measurement": "Activity", "setting": "[19]", "value": 15.94, "unit": "%"}, {"measurement": "Activity", "setting": "[20]", "value": "Active"}, {"measurement": "Activity", "setting": "[21]", "value": "Active"}, {"measurement": "IC50 at 72 h", "setting": "[22]", "value": "> 50000", "unit": "nM"}, {"measurement": "Activity", "setting": "[23]", "value": "inactive"}, {"measurement": "Activity", "setting": "[24]", "value": "inactive"}, {"measurement": "Activity", "setting": "[25]", "value": "inactive"}, {"measurement": "Activity", "setting": "[26]", "value": 39.38, "unit": "%"}, {"measurement": "IC50 at 72 h", "setting": "[27]", "value": 2950, "unit": "nM"}]}]}
